Reference: ChEMBL document CHEMBL1146631, “Design and synthesis of novel CCR3 antagonists” (Bioorg Med Chem Lett, 2003)

Experiments:
[1] = target: T1, C-C chemokine receptor type 3 (Homo sapiens, UniProt P51677); experiment: Binding affinity was determined towards C-C chemokine receptor type 3 using [125I]-labeled eotaxin as radioligand
T1 sequence (P51677 whole entry): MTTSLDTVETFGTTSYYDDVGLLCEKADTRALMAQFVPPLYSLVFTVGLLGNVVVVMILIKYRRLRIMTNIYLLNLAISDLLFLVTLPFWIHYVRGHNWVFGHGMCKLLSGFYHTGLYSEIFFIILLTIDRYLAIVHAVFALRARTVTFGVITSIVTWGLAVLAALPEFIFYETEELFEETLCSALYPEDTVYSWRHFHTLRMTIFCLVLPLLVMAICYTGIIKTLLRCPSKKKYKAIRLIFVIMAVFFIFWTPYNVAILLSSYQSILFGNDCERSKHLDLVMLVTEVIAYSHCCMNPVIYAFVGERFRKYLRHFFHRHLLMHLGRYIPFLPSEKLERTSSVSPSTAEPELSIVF

Rattus norvegicus = experiment: Area under curve in rat by po administration at 0-24 hr; format: ADME, organism-based; parameters: time < 24 hr, route oral; conditions: in vivo
[2] = target: T1, C-C chemokine receptor type 3; experiment: Compound was tested for its ability to inhibit C-C chemokine receptor type 3 receptor
[3] = Volume of distribution in rat by iv administration; format: ADME, organism-based; conditions: in vivo
[4] = Plasma clearance in rat by iv administration; format: ADME, organism-based
[5] = Half-life period in rat by iv administration; format: ADME, organism-based; conditions: in vivo

IC50 [1] | IC50 [2] | Structure (SMILES) | also measured
7.8 µM | – | Cc1ccc(C(=O)NC(CC2CCN(Cc3ccc(C)c(C)c3)CC2)C(C)C)cc1 (stereo not drawn) | –
> 200 µM | – | Cc1ccc(C(=O)NC(CC2CCC(Cc3ccc(Cl)c(Cl)c3)CC2)C(C)C)cc1 (stereo not drawn) | –
0.012 µM | 0.0044 µM | C[C@H](O)[C@H](CN1C2CCC1CC(Cc1ccc(Cl)cc1)C2)NC(=O)Nc1cccc(S(C)(=O)=O)c1 (stereo partly drawn) | AUC (Rattus norvegicus): 710 ng·h/mL
> 200 µM | – | Cc1ccc(C(=O)NC(CC2CCN(Cc3ccccc3)CC2)C(C)C)cc1 (stereo not drawn) | –
0.011 µM | 0.0047 µM | COc1cc(NC(=O)N[C@H](C)CN2C3CCC2CC(Cc2ccc(Cl)cc2)C3)cc(OC)c1OC (stereo partly drawn) | AUC (Rattus norvegicus): 280 ng·h/mL
1.8 µM | – | Cc1ccc(C(=O)NC(CN2C3CCC2CC(Cc2ccc(Cl)c(Cl)c2)C3)C(C)C)cc1 (stereo not drawn) | Vd [3]: 30.1 L/kg; clearance [4]: 118 mL/min/kg; half-life [5]: 3.5 h
0.5 µM | – | Cc1ccc(C(=O)NC(CN2CCC(Cc3ccc(Cl)c(Cl)c3)CC2)C(C)C)cc1 (stereo not drawn) | –
5.3 µM | – | Cc1ccc(C(=O)NC(CN2CC3CCC2CC3Cc2ccc(Cl)c(Cl)c2)C(C)C)cc1 (stereo not drawn) | –
1.7 µM | – | Cc1ccc(C(=O)NC(CC2CCN(Cc3ccc(Cl)c(Cl)c3)CC2)C(C)C)cc1 (stereo not drawn) | –
8.5 µM | – | Cc1ccc(C(=O)NC(CC2CCN(Cc3ccc([N+](=O)[O-])cc3)CC2)C(C)C)cc1 (stereo not drawn) | –
0.5 µM | – | COc1cc(NC(=O)NC(CC2CCN(Cc3ccc(Cl)c(Cl)c3)CC2)C(C)C)cc(OC)c1OC (stereo not drawn) | –
0.065 µM | 0.012 µM | C[C@H](CN1C2CCC1CC(Cc1ccc(Cl)cc1)C2)NC(=O)Nc1cccc(S(C)(=O)=O)c1 (stereo partly drawn) | –

Structure (SMILES) | IC50 [1] | IC50 [2] | also measured
COc1cc(NC(=O)N[C@@H](CN2C3CCC2CC(Cc2ccc(Cl)cc2)C3)[C@H](C)O)cc(OC)c1OC (stereo partly drawn) | 0.0082 µM | 0.0024 µM | AUC (Rattus norvegicus): 190 ng·h/mL
